{"source": "patent US20250084178A1", "about": "“ANTI-CD39 ANTIBODIES AND USE THEREOF” (ARCUS BIOSCIENCES, INC., priority 2022, published 2025)", "key": {"SK-MEL-5 cells": {"system": "SK-MEL-5 cells", "assay": "Extracellular ATP release after oxaliplatin, SK-MEL-5 cells", "assay_type": "cell-based, human", "conditions": "250 μM oxaliplatin, 8 hours", "procedure": "(§1) To evaluate cellular ATP release following oxaliplatin treatment, murine colon carcinoma cell lines CT26 and MC38 and human melanoma cell line SK-MEL-5 were defrosted, rinsed, and resuspended in their respective culture media. Culture media for CT26 and MC38 is RPMI+10% FBS+1% glutamax+1% penicillin-streptomycin+1% sodium pyruvate. Culture media for SK-MEL-5 is EMEM+10% FBS+1% glutamax+1% penicillin-streptomycin+1% sodium pyruvate. Cells were plated at 2.5×10^4 cells per well in a 96-well plate and incubated overnight at 37° C., 5% CO2. The following day, the cells were treated with the vehicle (PBS), 100 μM or 250 μM oxaliplatin. […] To determine cellular viability, the cells were incubated with treatments for 24 hours at 37° C., 5% CO2. At the end of the incubation period, viability was determined using luminescence-based Cell Titer Glo 2.0 assay (Promega, Cat. No. G9242). Data are presented as viability normalized to untreated vehicle controls (FIG. 19A). To determine HMGB1 release, the cells were incubated with treatment for 24 hours at 37° C., 5% CO2. At the end of the incubation period, the plates were centrifuged at 400×g for 5 minutes and supernatants were collected. HMGB1 levels in the culture supernatants were then determined using Lumit HMGB1 Kit (Promega, Cat. No. CS3030B01) following manufacturer's instructions (FIG. 19B). […]"}, "CT26 and MC38 cells": {"system": "CT26 and MC38 cells", "assay": "Extracellular ATP release after oxaliplatin, murine colon carcinoma lines", "assay_type": "cell-based", "conditions": "250 μM oxaliplatin, 8 hours", "procedure": "as §1"}}, "data": [{"smiles": "O=C1[O][Pt]2([NH][C@@H]3CCCC[C@H]3[NH]2)[O]C1=O", "note": "[oxaliplatin, reference compound]", "values": [{"measurement": "Extracellular ATP release", "setting": "SK-MEL-5 cells", "value": "demonstrated ATP release"}, {"measurement": "Extracellular ATP release", "setting": "CT26 and MC38 cells", "value": "demonstrated ATP release"}]}]}
